Patent publication US20120003262A1, “ANTICANCER HEALTH FOOD CONTAINING PHELLINUS LINTEUS AND VEGETABLE WORMS” (HAN KOOK SHIN YAK CO., LTD., priority 2008, published 2012)

System: lung cancer cell (Lewis Lung Carcinoma: LLC)
Experiment: Anticancer animal test: Lewis Lung Carcinoma transplanted to mice, tumor volume and weight after 14 days of administration
Assay type: in vivo, mouse
Details: LLC-transplanted BDF1 male mice, extracts 200 mg/kg orally daily, Taxol 50 mg/kg intraperitoneally daily, for 14 days
Method: In order to test an anticancer effect of the mixture extract of Phellinus linteus and vegetable worms, from Examples 1 to 7, and Comparative 1, an animal test was carried out. A mouse used for the experiment was bought from Jung Ang Lab. Animal Inc. (black, Japan, BDF1 male, weight: 20±2 g). The breeding temperature was 22±2° C., and solid feed stuff (Samyang feed Co.) and water were sufficiently supplied. […]
A solvent for the extraction was an extra pure reagent (E.P.). For the test sample, a sterilized saline solution manufactured by Daihan Pharm Co. Ltd. was used. For the culture of a cancer cell, an RPMI 1640 medium (WelGENE Inc.) was used, and Trypsin-EDTA was manufactured by GIBCO. Besides, a test tube required for cell culture, a culture flask, and a filter for obtaining a cancer cell were manufactured by Falcon. Devices used for cancer transplantation were disinfected at 120° C. for 30 min, and a cancer volume was measured by a Digital Caliper.
A lung cancer cell (Lewis Lung Carcinoma: LLC) used for the experiment was distributed from the Korea Research Institute of Bioscience and Biotechnology. The lung cancer cell (Lewis Lung Carcinoma: LLC) was cultured by RPMI 1640 medium added with 10% FBS in a 37° C. incubator, and for the detachment from an attachment surface, Trypsin-EDTA was used. When the cells are filled up in a 200 ml culture flask, they were transplanted to two animals. After the cells were grown in vivo, they were used for an animal test.
In an anticancer animal test, a tumor grown up to a size of about 15×15×15 mm^3 was separated, and a cancer cell was separated from other cells by using a filer (Falcon). […] From the day after the cancer transplantation, for 14 days, powder obtained by mixing Phellinus linteus and vegetable worms at a weight ratio of 1:1 (Example 1), 1:3(Example 2), 3:1(Example 3), 1:5(Example 4), 5:1(Example 5), 1:10(Example 6), 10:1(Example 7) was orally administered daily to a black mouse (Japan) in an amount of 200 mg/kg. Meanwhile, as a positive control group, Taxol was intraperitoneally injected daily in an amount of 50 mg/kg once a day for 14 days. After 14 days, the administration of the extract powder of Phellinus linteus and vegetable worms was stopped, and a Digital Caliper was used to measure the results. […] After the measurement of a tumor volume, a tumor lump was obtained through an operation and its weight was measured. An inhibition ratio of tumor weight (IRTW) was calculated by (TW of control−TW of test)×100/TW of control.
All data were indicated by mean±S.D., and the analysis was carried out by Anova test. Also, when p values are 0.05 or less, they were determined to have significance.

For `CC(=O)O[C@H]1C(=O)[C@@]2(C)[C@H]([C@H](OC(=O)c3ccccc3)[C@]3(O)C[C@H](OC(=O)[C@H](O)[C@@H](NC(=O)c4ccccc4)c4ccccc4)C(C)=C1C3(C)C)[C@]1(OC(C)=O)CO[C@@H]1C[C@@H]2O` [Taxol], which “Tumor volume inhibiting ratio” value ((TV of control−TV of test)×100/TV of control) is on record?
The value was 67%.

And the “Tumor weight inhibiting ratio” value ((TW of control−TW of test)×100/TW of control)?
Its value is 64%.

What about the Tumor size (mean±S.D., 5 mice) of the same compound?
The Tumor size was 649 ± 182 mm^3.

What about the Tumor weight (mean±S.D., 5 mice) of the same compound?
Its Tumor weight is 0.61 ± 0.3 g.
